# Experimental data from patent publication US9063122B2, “Biomodulators for treatment or prevention of disease” (priority 2008, dated 2015).
# Legend:
# [1] = system: C33A cervical carcinoma cells; experiment: Cellular ATP level (ViaLight) cell viability assay; type: cell-based; details: 0.5 μM, 72 hours after treatment
# Excerpt: (§1) Selected cell lines include C33A cervical carcinoma cells, Mrc-5 normal lung fibroblasts, PC-3 human prostatic carcinoma cell line, OVCAR-3 human ovarian carcinoma cell line, H460 non-small cell lung cancer cell line, A549 human lung carcinoma cell line, H1299 human non-small cell lung cancer cells, MCF-7 human breast cancer cell line, SW-480 human adenocarcinoma cell line, B16-F1 mouse melanoma cell line (American Type Culture Collection, Manassas, Va., USA), HMEC normal mammary epithelial cells (Clonetics San Diego, Calif., USA) and ADR-RES human breast cancer cell line (NCI, MD, USA), which are cultured in the media recommended by the American Type Culture Collection. The cell lines are plated in 96-well microliter plates (PerkinElmer Life Sciences Inc., Boston, Mass., USA) at a confluency that allows them to reach confluence after 4 days of growth. One day after plating, the cells are treated with various concentrations of biomodulator. Stock solutions of the biomodulator are prepared in dimethyl sulfoxide (Sigma-Aldrich Inc., St. Louis, Mo., USA), diluted in the recommended media and then added to the cells. The total dimethyl sulfoxide on the cells is 1%. After 3 days of incubation the ATP levels in the cells are quantified using a luminescent ViaLight detection system (Bio-Whittaker, MD, USA). […]
# [2] = system: H1299 human non-small cell lung cancer cells; experiment: Cellular ATP level (ViaLight) cell viability assay; type: cell-based; details: 0.5 μM, 72 hours after treatment
# Excerpt: as §1
# [3] = system: ten different cancer cell lines; experiment: Cellular ATP level (ViaLight) assay, panel of cancer cell lines; type: cell-based; details: various concentrations
# Excerpt: as §1
# [4] = system: murine colonic tumor, colon 26; experiment: Treatment of colon 26 tumors in mice; type: in vivo, CDF1 mice; details: 1 mg in 1 ml on days 7, 11 and 15, under the skin of the back and into tail vein; palpation
# Method: Treatment of tumors in mice. A pharmaceutical composition of biomodulator 3-indolyl-acetic acid, or 6-furfurylaminopurine are prepared at 10 mg in 10 ml of physiological saline. 10 mg of a murine colonic tumor, colon 26, is inoculated under the skin of the back of CDF1 mice (day 0). After one week, the tumor is measured to calculate the volume of the tumor and the mice are classified into several groups (each group: n=5). On days 7, 11 and 15, the tumor-inoculated mice are bolusly injected under the skin of their backs and into their tail veins with 1 mg of the biomodulator in a volume of 1 ml. Control and comparative groups of mice are similarly injected with saline. Complete regression of the colonic tumor is determined by palpation. Subjects in which the tumor […] by palpation on the 60th day are deemed to have their tumors cured completely.
# [5] = system: fibroblasts in human skin; details: cited from earlier work
# [6] = system: human myeloid leukaemia cells; details: cited from earlier work
# white cells = details: in vitro; cited from earlier work
# C2C12 muscle stem cells [7] = experiment: C2C12 muscle stem cell culture with immunocytochemistry (Pax7, MyoD, Ki67, MHC); type: cell-based; details: for number of stem cells in culture: FIG. 2, TIBA at low to mid-level concentrations (range tested 0.0001-0.1 μg/ml)
# Method: (§2) Reagents: The auxin 2,4-Dichlorophenoxyacetic acid, and auxin antagonist, TIBA (2,3,5-triiodobenzoic acid), are purchased from Sigma-Aldrich (St. Louis, Mo.), After dissolving, these compounds are stored at −20° C. Concentrations used are 0.0001, 0.001, 0.01 and 0.1 μg/ml.
# C2C12 muscle stem cells are used. Cells from low-passage frozen stocks are seeded in a 10 cm culture dish. After reaching 60% confluence, cells are passaged into an 8-well chamber slide (BD Biosciences, CA, USA). C2C12 cells are seeded on an 8-well chamber slide (3.5×10^3 cells/well). On day 3 after exposure to biomodulator or control, cells are fixed for immunocytochemistry (ICC) of MyoD and Ki67. For MHC and Pax7 immunostaining, cell culture media is replaced from the growth media (GM) to the differentiation media (DM) to induce terminal differentiation at day 5, and then cells are fixed for ICC of MHC and Pax7 at day 8. Media change and compound administration are performed daily.
# For ICC, cells are fixed with 4% paraformaldehyde (PFA)/PBS for 20 min at ambient temperature. After being washed with PBS, cells are soaked in 0.1% Triton-X/PBS for 15 min at RT and blocked with 5% normal goat serum (NGS)/PBS to inhibit non-specific binding of antibodies for 60 min at ambient temperature. Primary antibodies are applied, and cells are incubated overnight at 4° C. The primary antibodies are anti-Pax7 mouse monoclonal (Developmental Studies Hybridoma Bank (DSHB), IA), anti-MyoD mouse monoclonal (DSHB), anti-Myosin Heavy Chain mouse monoclonal (MF20; DSHB) and anti-Ki67 rabbit polyclonal (Thermo Fisher Scientific, CA) antibodies.
# C2C12 muscle stem cells [8] = experiment: WST-1 cell growth assay; type: cell-based; details: day 3; 0.001 μg/ml and 0.0001 μg/ml
# Method: as §2
# Cell growth parameters are measured by WST assay. Cell proliferation reagent WST-1 is purchased from Roche (NJ). Assays are performed according to the manufacturer's protocol. Cells are seeded on a 96-well cell culture plate (1.5×10^3 cells/well), and absorbance (A450-A690) is measured at day 3.
# [9] = system: cardiac cells (myoblasts); details: cited from earlier work
smiles,measurement,setting,value
O=C(O)Cc1c[nH]c2ccccc12 [3-indolyl-acetic acid],lowering of ATP levels compared with normal cell lines HMEC and MRC-5,[1],significantly more effective at lowering ATP levels
same,lowering of ATP levels compared with normal cell lines HMEC and MRC-5,[2],significantly more effective at lowering ATP levels
same,decrease of cellular ATP levels compared with HMEC normal mammary epithelial cell line,[3],greater efficacy in decreasing cellular ATP levels
same,tumor regression,[4],produces tumor regression
c1coc(CNc2ncnc3nc[nH]c23)c1 [6-furfurylaminopurine],tumor regression,[4],produces tumor regression
same,life span of fibroblasts,[5],prolongs the life span of fibroblasts
same,granulocytic differentiation and apoptosis,[6],induction of granulocytic differentiation
"CC1=CC(=O)CC(C)(C)[C@@]1(O)/C=C/C(C)=C\C(=O)O [ABA, Abscisic acid]",phagocytosis in white cells,white cells,stimulation of phagocytosis
"O=C(O)c1cc(I)cc(I)c1I [TIBA, 2,3,5-triiodobenzoic acid]",number of stem cells in culture,C2C12 muscle stem cells [7],reduces the number of stem cells
same,myotube formation,"C2C12 muscle stem cells [7]; FIG. 6, increased concentrations of TIBA",increased myotube formation
same,number of MyoD positive myoblasts,C2C12 muscle stem cells [7]; day 3,dose-dependent decrease
same,"cell number, WST-1 cell growth assay",C2C12 muscle stem cells [8],increases cell number
"O=C(O)COc1ccc(Cl)cc1Cl [auxin, 2,4-Dichlorophenoxyacetic acid]",number of stem cells in culture,C2C12 muscle stem cells [7],opposite that of TIBA
same,global cell proliferation,"C2C12 muscle stem cells [7]; FIG. 4, high Auxin concentrations",reduced
same,myotube formation,"C2C12 muscle stem cells [7]; FIG. 5, low auxin concentration",increase
same,myotube formation,"C2C12 muscle stem cells [7]; FIG. 5, mid to high auxin concentration (0.01 μg/ml)",reduced
c1nc2nc(Nc3ccc(N4CCOCC4)cc3)nc(NC3CCCCC3)c2[nH]1 [reversine],de-differentiation of cells,[9],de-differentiate into osteoblasts and adipocytes
